Key:
[1] = Tissue distribution of SDC-TRAPs in tumor-bearing mice: plasma, tumor, heart (Examples 14-15); settings: mouse, in vivo
HER2 = HER2 degradation assay with BT-474 cell line (Example 12, FACS); format: cell-based; settings: Homo sapiens
[2] = BT-474, SDC-TRAPs of the 43rd table

IC50 (HER2; BT-474 cells) [nM]	Compound	also measured
493	CCNC(=O)c1nnc(-c2cc(C(C)C)c(O)cc2O)n1-c1ccc(CN2CCC(C(=O)N3CCC[C@H]3C(=O)Nc3cccc4c3CN(C3CCC(=O)NC3=O)C4=O)CC2)cc1 (stereo partly drawn) [SDC-TRAP-0164, 5-(2,4-dihydroxy-5-isopropylphenyl)-4-(4-((4-((2S)-2-((2-(2,6-dioxopiperidin-3-yl)-1-oxoisoindolin-4-yl)carbamoyl)pyrrolidine-1-carbonyl)piperidin-1-yl)methyl)phenyl)-N-ethyl-4H-1,2,4-triazole-3-carboxamide]	
1180	CCNC(=O)c1nnc(-c2cc(C(C)C)c(O)cc2O)n1-c1ccc(Oc2ccc(C(=O)N[C@@H](CC(C)C)C(=O)Nc3cccc4c3CN(C3CCC(=O)NC3=O)C4=O)cc2)cc1 (stereo partly drawn) [SDC-TRAP-0191, 5-(2,4-dihydroxy-5-isopropylphenyl)-4-(4-(4-(((2S)-1-((2-(2,6-dioxopiperidin-3-yl)-1-oxoisoindolin-4-yl)amino)-4-methyl-1-oxopentan-2-yl)carbamoyl)phenoxy)phenyl)-N-ethyl-4H-1,2,4-triazole-3-carboxamide]	
3500	CC(C)c1cc(-c2nnc(O)n2-c2ccc(N3CCN(C(=O)c4ccc(COC(=O)Nc5cccc6c5CN(C5CCC(=O)NC5=O)C6=O)cc4)CC3)cc2)c(O)cc1O (centres unmarked) [SDC-TRAP-0156, 4-(4-(4-(3-(2,4-Dihydroxy-5-isopropylphenyl)-5-hydroxy-4H-1,2,4-triazol-4-yl)phenyl)piperazine-1-carbonyl)benzyl (2-(2,6-dioxopiperidin-3-yl)-1-oxoisoindolin-4-yl)carbamate]	
266	CCNC(=O)c1nnc(-c2cc(C(C)C)c(O)cc2O)n1-c1ccc(CN2CCC(C(=O)N[C@@H](CC(C)C)C(=O)Nc3cccc4c3CN(C3CCC(=O)NC3=O)C4=O)CC2)cc1 (stereo partly drawn) [SDC-TRAP-0193, 1-(4-(3-(2,4-dihydroxy-5-isopropylphenyl)-5-(ethylcarbamoyl)-4H-1,2,4-triazol-4-yl)benzyl)-N-((2S)-1-((2-(2,6-dioxopiperidin-3-yl)-1-oxoisoindolin-4-yl)amino)-4-methyl-1-oxopentan-2-yl)piperidine-4-carboxamide]	
4330	CCNC(=O)c1nnc(-c2cc(C(C)C)c(O)cc2O)n1-c1ccc(C(=O)N(C)CC(=O)Nc2cccc3c2CN(C2CCC(=O)NC2=O)C3=O)cc1 (centres unmarked) [SDC-TRAP-0147, 5-(2,4-dihydroxy-5-isopropylphenyl)-4-(4-((2-((2-(2,6-dioxopiperidin-3-yl)-1-oxoisoindolin-4-yl)amino)-2-oxoethyl)(methyl)carbamoyl)phenyl)-N-ethyl-4H-1,2,4-triazole-3-carboxamide]	
239	CC(C)c1cc(-c2nnc(O)n2-c2ccc(CN3CCN(C(=O)c4cnc(C(=O)Nc5cccc6c5CN(C5CCC(=O)NC5=O)C6=O)cn4)CC3)c(F)c2)c(O)cc1O (centres unmarked) [SDC-TRAP-0160, 5-(4-(4-(3-(2,4-dihydroxy-5-isopropylphenyl)-5-hydroxy-4H-1,2,4-triazol-4-yl)-2-fluorobenzyl)piperazine-1-carbonyl)-N-(2-(2,6-dioxopiperidin-3-yl)-1-oxoisoindolin-4-yl)pyrazine-2-carboxamide]	
296	CC(C)c1cc(-c2nnc(O)n2-c2ccc(CN3CCN(c4cnc(C(=O)Nc5cccc6c5CN(C5CCC(=O)NC5=O)C6=O)cn4)CC3)c(F)c2)c(O)cc1O (centres unmarked) [SDC-TRAP-0170, 5-(4-(4-(3-(2,4-dihydroxy-5-isopropylphenyl)-5-hydroxy-4H-1,2,4-triazol-4-yl)-2-fluorobenzyl)piperazin-1-yl)-N-(2-(2,6-dioxopiperidin-3-yl)-1-oxoisoindolin-4-yl)pyrazine-2-carboxamide]	

The remaining lines, values behind:

Compound	IC50 (HER2; BT-474 cells) [nM]	also measured
CCc1c2c(nc3ccc(OC(=O)N4CCN(Cc5ccc(-n6c(O)nnc6-c6cc(C(C)C)c(O)cc6O)cc5)CC4)cc13)-c1cc3c(c(=O)n1C2)COC(=O)C3(O)CC (centres unmarked) [SDC-TRAP-0046, 4,11-diethyl-4-hydroxy-3,14-dioxo-3,4,12,14-tetrahydro-1H-pyrano[3′,4′:6,7]indolizino[1,2-b]quinolin-9-yl 4-(4-(3-(2,4-dihydroxy-5-isopropylphenyl)-5-hydroxy-4H-1,2,4-triazol-4-yl)benzyl)piperazine-1-carboxylate]		Kp at 6 h [1]: 0.844; Kp at 12 h [1]: 2.2; Kp at 24 h [1]: 40.3; Kp at […] [1]: 0.0193; concentration at 6 h [1]: 5880 nM; concentration at 12 h [1]: 2370 nM; concentration at 24 h [1]: 54.2 nM
COc1ccc(-c2cnoc2-c2cc(OC)c(OC)c(OC)c2)cc1OC(=O)N1CCN(Cc2ccc(-n3c(O)nnc3-c3cc(C(C)C)c(O)cc3O)cc2)CC1 [SDC-TRAP-0098, 2-Methoxy-5-(5-(3,4,5-trimethoxyphenyl)isoxazol-4-yl)phenyl-4-(4-(3-(2,4-dihydroxy-5-isopropylphenyl)-5-hydroxy-4H-1,2,4-triazol-4-yl)benzyl)piperazine-1-carboxylate]		Kp at 1 h [1]: 0.62; Kp at 6 h [1]: 8.22; Kp at 24 h [1]: 300; Kp at […] [1]: 0.01
CC(C)c1cc(-c2nnc(O)n2-c2ccc3c(ccn3CCC3CCN(CC(=O)Nc4cccc5c4CN(C4CCC(=O)NC4=O)C5=O)CC3)c2)c(O)cc1O (centres unmarked) [SDC-TRAP-0129, 2-(4-(2-(5-(3-(2,4-dihydroxy-5-isopropylphenyl)-5-hydroxy-4H-1,2,4-triazol-4-yl)-1H-indol-1-yl)ethyl)piperidin-1-yl)-N-(2-(2,6-dioxopiperidin-3-yl)-1-oxoisoindolin-4-yl)acetamide]	4520	
CCNC(=O)c1nnc(-c2cc(C(C)C)c(O)cc2O)n1-c1ccc(CN2CCC(C(=O)N3CCC(n4cc(-c5cnc(N)c(O[C@H](C)c6c(Cl)ccc(F)c6Cl)c5)cn4)CC3)CC2)cc1 [SDC-TRAP-0134, (R)-4-(4-((4-(4-(4-(6-amino-5-(1-(2,6-dichloro-3-fluorophenyl)ethoxy)pyridin-3-yl)-1H-pyrazol-1-yl)piperidine-1-carbonyl)piperidin-1-yl)methyl)phenyl)-5-(2,4-dihydroxy-5-isopropylphenyl)-N-ethyl-4H-1,2,4-triazole-3-carboxamide]	77	
CC(C)c1cc(-c2nnc(O)n2-c2ccc(CN3CCN(C(=O)ONC(=O)CCCCCCC(=O)Nc4ccccc4)CC3)cc2)c(O)cc1O [SDC-TRAP-0117, N1-((4-(4-(3-(2,4-dihydroxy-5-isopropylphenyl)-5-hydroxy-4H-1,2,4-triazol-4-yl)benzyl)piperazine-1-carbonyl)oxy)-N8-phenyloctanediamide]	1100	
CC(C)c1cc(-c2nnc(O)n2-c2ccc(N3CCN(CC(=O)Nc4cccc5c4CN(C4CCC(=O)NC4=O)C5=O)CC3)cc2)c(O)cc1O (centres unmarked) [SDC-TRAP-0110, 2-(4-(4-(3-(2,4-dihydroxy-5-isopropylphenyl)-5-hydroxy-4H-1,2,4-triazol-4-yl)phenyl)piperazin-1-yl)-N-(2-(2,6-dioxopiperidin-3-yl)-1-oxoisoindolin-4-yl)acetamide]	> 10000	
CC(C)c1cc(-c2nnc(O)n2-c2ccc(CN3CCN(CCN(C)C(=O)Nc4cccc5c4CN(C4CCC(=O)NC4=O)C5=O)CC3)cc2)c(O)cc1O (centres unmarked) [SDC-TRAP-0105, 1-(2-(4-(4-(3-(2,4-dihydroxy-5-isopropylphenyl)-5-hydroxy-4H-1,2,4-triazol-4-yl)benzyl)piperazin-1-yl)ethyl)-3-(2-(2,6-dioxopiperidin-3-yl)-1-oxoisoindolin-4-yl)-1-methylurea]	> 10000	
CCc1c2c(nc3ccc(O)cc13)-c1cc3c(c(=O)n1C2)COC(=O)C3(CC)OC(=O)N(C)CCCCN1CCN(Cc2ccc(-n3c(O)nnc3-c3cc(C(C)C)c(O)cc3O)cc2)CC1 (centres unmarked) [SDC-TRAP-0055, 4,11-diethyl-9-hydroxy-3,14-dioxo-3,4,12,14-tetrahydro-1H-pyrano[3′,4′:6,7]indolizino[1,2-b]quinolin-4-yl (4-(4-(4-(3-(2,4-dihydroxy-5-isopropylphenyl)-5-hydroxy-4H-1,2,4-triazol-4-yl)benzyl)piperazin-1-yl)butyl)(methyl)carbamate]		IC50 (HER2; [2]): 402 nM
CC(C)c1cc(-c2nnc(O)n2-c2ccc(CN3CCN(C(=O)O[C@H]4CC[C@@]5(C)C(=CC[C@@H]6[C@@H]5CC[C@]5(C)C(c7cccnc7)=CC[C@@H]65)C4)CC3)cc2)c(O)cc1O [SDC-TRAP-0150, (3S,8R,9S,10R,13S,14S)-10,13-dimethyl-17-(pyridin-3-yl)-2,3,4,7,8,9,10,11,12,13,14,15-dodecahydro-1H-cyclopenta[a]phenanthren-3-yl 4-(4-(3-(2,4-dihydroxy-5-isopropylphenyl)-5-hydroxy-4H-1,2,4-triazol-4-yl)benzyl) piperazine-1-carboxylate]	1410	
CCc1c2c(nc3ccc(OCC(=O)N4CCN(Cc5ccc(-n6c(O)nnc6-c6cc(C(C)C)c(O)cc6O)cc5)CC4)cc13)-c1cc3c(c(=O)n1C2)COC(=O)C3(O)CC (centres unmarked) [SDC-TRAP-0077, 9-(2-(4-(4-(3-(2,4-dihydroxy-5-isopropylphenyl)-5-hydroxy-4H-1,2,4-triazol-4-yl)benzyl)piperazin-1-yl)-2-oxoethoxy)-4,11-diethyl-4-hydroxy-1H-pyrano[3′,4′:6, 7]indolizino[1,2-b]quinoline-3,14(4H,12H)-dione]		IC50 (HER2; [2]): 2790 nM
CC(C)c1cc(-c2nnc(O)n2-c2ccc3c(ccn3CCOCCN(C)C(=O)CCn3cc(F)c(=O)[nH]c3=O)c2)c(O)cc1O [SDC-TRAP-0050, N-(2-(2-(5-(3-(2,4-dihydroxy-5-isopropylphenyl)-5-hydroxy-4H-1,2,4-triazol-4-yl)-1H-indol-1-yl)ethoxy)ethyl)-3-(5-fluoro-2,4-dioxo-3,4-dihydropyrimidin-1(2H)-yl)-N-methylpropanamide]	> 5000	
CC(C)c1cc(-c2nnc(O)n2-c2ccc3c(ccn3CCNC(=O)Cn3cc(F)c(=O)[nH]c3=O)c2)c(O)cc1O [SDC-TRAP-0013, N-(2-(5-(3-(2,4-dihydroxy-5-isopropylphenyl)-5-hydroxy-4H-1,2,4-triazol-4-yl)-1H-indol-1-yl)ethyl)-2-(5-fluoro-2,4-dioxo-3,4-dihydropyrimidin-1(2H)-yl) acetamide]	> 5000	
CCNC(=O)c1nnc(-c2cc(C(C)C)c(O)cc2O)n1-c1ccc(C(=O)N(C)CCCOC(=O)Nc2cccc3c2CN(C2CCC(=O)NC2=O)C3=O)cc1 (centres unmarked) [SDC-TRAP-0135, 3-(4-(3-(2,4-dihydroxy-5-isopropylphenyl)-5-(ethylcarbamoyl)-4H-1,2,4-triazol-4-yl)-N-methylbenzamido)propyl(2-(2,6-dioxopiperidin-3-yl)-1-oxoisoindolin-4-yl)carbamate]	9670	

From patent US9956293B2, “Targeted therapeutics” (Madrigal Pharmaceuticals, Inc., priority 2014, dated 2018)
